Measured values as given in patent publication US7863287B2, “Compositions of non-steroidal anti-inflammatory drugs, decongestants and anti-histamines” (Wyeth LLC, priority 2002, dated 2011).
Where a name gives a salt, the structure may show the parent alone.

Tested on: seasonal allergic rhinitis
Test: Multicenter, placebo-controlled, double-blind, randomized multiple-dose efficacy trial in seasonal allergic rhinitis
Format: in vivo, human
Excerpt: The study was a multicenter, outpatient, multiple-dose, placebo controlled, double-blind, double-dummy, parallel-group, randomized trial.
The study enrolled 1070 appropriately selected patients who were at least 12 years of age and included both males and females. […] Qualified subjects were required to undergo a 3-30 day run-in phase to establish that the patients had sufficiently severe allergy symptoms, during which time they reflectively assessed the severity of the following symptoms in the morning (upon waking) and in the evening (prior to bedtime): nasal congestion, sneezing, rhinorrhea, itchy nose/throat/palate; itchy/watery/red eyes and headache/facial pain/pressure/discomfort. The severity of each symptom was assessed using a 4-point categorical scale where 0=none (no symptom present), 1=mild (minimal awareness of symptom, symptom easily tolerated), 2=moderate (symptom present and bothersome, but tolerable) and 3=severe (symptom hard to tolerate; may cause interference with daily activities/sleeping). […] Patients were also assessed for allergy associated pain and were asked if they were in pain. […]

Structure (SMILES): CN(C)CCC(c1ccc(Cl)cc1)c1ccccn1 (stereo not shown) [chlorpheniramine, chlorpheniramine maleate]
- relief of histamine-mediated symptoms, result in words: more effective than the placebo
